Results as given in US20150344535A1, “NEUROTROPHIN-TYROSINE KINASE RECEPTOR SIGNALING” (THE UNIVERSITY OF QUEENSLAND, priority 2012, published 2015).

Key:
[1] = tested on: PC12 cells; test: PC12 cell neurite outgrowth in response to EGF; format: cell-based; details: EGF plus secretase inhibitor, 5 days
Experimental: (§1) To assess the effect of p75^NTR constructs (FIG. 2) or c29 peptide on TrkA-mediated neuritogenesis, transfected PC12 cells were grown in the presence of 100 ng/ml NGF for 3 days, with fresh medium and NGF treatments added on day 2. Cells were then imaged live on an Olympus (IX81) microscope fitted with a CO2 atmospheric chamber, using analySIS software. Four random images of 80-100 cells were taken for each treatment condition and images were determined by measuring polygon neurite length of all cells in each image. Data analysis was performed using Graphpad PRISM.
To determine whether the effect of the c29 peptide on enhancement of neurite outgrowth was NGF and TrkA specific, we repeated the experiment using EGF to stimulate differentiation.

[2] = tested on: PC12 cells; test: PC12 cell neurite outgrowth in response to NGF; format: cell-based; details: NGF plus secretase inhibitor over 5 days
[3] = tested on: PC12 cells; test: PC12 cell neurite outgrowth in response to NGF; format: cell-based; details: for neurite growth: fragments incubated with PC12 cells and NGF, FIG. 16
Experimental: as §1
Once PC12 cells are fully differentiated, they become dependent on NGF for survival (Greene, 1978), but can survive if grown in the presence of lower concentrations of NGF (Greene and Tischler, 1976). To determine if c29 could potentiate TrkA-mediated signals, PC12 cells were cultured in the presence of NGF concentrations ranging from 1-100 ng/ml for 5 days, following serum starvation and pre-incubation with c29, scrambled control peptide or no peptide (FIG. 5A). […] Peptides (1 μM) were added to the cultures every 48 hours at the time of NGF addition and medium exchange.

[4] = tested on: TrkA; test: Biotinylated peptide pull down of TrkA; format: binding; details: TrkA pull downs, FIG. 15F
Experimental: For peptide pull down assays, the biotinylated c29 or LC1 control peptides were incubated with protein A-sepharose beads or Dynabeads MyOne Streptavidin T1 (Invitrogen) overnight at 4° C. Cell lysates were then added to the peptide-protein A-sepharose complex or Dynabeads MyOne Streptavidin T1 and incubated for 3 hours at 4° C. Peptide-receptor complexes were washed extensively with RIPA lysis buffer and eluted by boiling in Laemmli sample buffer. For p75^NTR construct immunoprecipitations, HEK293 cells were treated with NGF at 50 ng/ml for 10 minutes 48 hours after transfection with 1 μg DNA per well. Cells were immediately harvested in ice-cold phosphate buffered saline (PBS) and washed twice, then lysed in 1 ml of lysis buffer. Cell lysates were pre-cleared in 75 μl (1:2) protein-G sepharose: PBS by rotation end-over-end for 2 hours at 4′C. Lysates were then incubated with 3-5 μg antibody, either mouse-anti-YFP/GFP (Roche) or rabbit-anti-human p75^NTR intracellular domain antibody (Promega), and rotated end-over-end for 2 hours at 4° C.
(§2) Immunoprecipitation was performed by the addition of 75 μl (1:2) protein-G sepharose: PBS and incubation end-over-end for 16 hours at 4° C. The immunoprecipitate was washed 4 times with 1 ml of PBS then eluted in 60 μl 2×LDS sample buffer. For immunoblotting, samples were boiled for 5 minutes, separated by SDS-PAGE and transferred onto nitrocellulose membranes, then western blotted using standard protocols (see Example 1 for antibodies used).
The c29 peptide was labelled with biotin and attached to a sepharose bead column. Lysates from cells was passed over the column followed by several wash steps. The proteins that bound to the c29 peptide (proteins that are pulled down) were eluted from the column with SDS buffer and separated in size by SDS-PAGE electrophoresis. The gel was Western blotted and the membrane probed with antibodies to proteins of interest.

[5] = tested on: PC12 cells; test: NGF-FITC binding by flow cytometry, PC12 cells; details: NGF-FITC, c.f. PC12
Experimental: The NGF was conjugated to FITC by standard methods and detailed flow cytometry acquisition and analysis. For NGF-FITC conjugation 400 μg βNGF in 200 μl pH 8.5 NaHCO3 buffer was mixed with 5-10 μl of 10 mg/ml FITC in 100 μl DMSO for 10 hours at 4° C. on an orbital shaker set to 100 rpm. The excess FITC was removed by dialysis against 3 changes of 5 L of 10 mM Tris, 150 mM NaCl, 0.2% acetic acid, pH 8.2 for 24 hours at 4° C. Conjugate F/P characterization was determined by measuring absorbance at 280 nm and 495 nm according to manufacturer's instructions. Biological activity of the NGF-FITC conjugate was tested by performing PC12 cell neurite outgrowth assays unlabelled NGF, and comparing the levels of neuritogenesis. NGF-FITC conjugates were used within 4 weeks of synthesis.
For the flow cytometry NGF binding assays, fluorescence cell parameters of at least 20,000 events for PC12 cells and 100,000 events for HEK293 cells were acquired by flow cytometry list mode and measurements were performed on a single cell basis (with compensation for double event counting). Dead cells and debris were gated out of the analysis on the basis of forward scatter fluorescence, and mean, median and maximal fluorescence values of the gated cell populations were analysed using FACS Diva Software (Becton-Dickinson Biosciences) and FACS Express Software (Becton-Dickinson Biosciences).
(§3) Background fluorescence of HEK293 cells was non-transfected cells (±c29 or scrambled peptide treatment) treated with 26 nM NGF-FITC. For PC12 cells, the control population was cells that had not been treated with NGF-FITC. Analysis of real-time NGF-FITC receptor binding experiments was performed on 550,000-600,000 cells at 4° C. in serum free NB medium and binding kinetics were calculated from raw data files compressed to 50,000 binding events using FlowJo and MatLab Software. Data was plotted with the use of GraphPad Prism.
(§4) Only NGF-FITC preparations that promoted equivalent neurite outgrowth of PC12 cells to that of unlabelled NGF were used in binding experiments. To investigate NGF binding, PC12 or transfected HEK293 cells were serum starved for 4 hours, harvested, washed with Dulbecco's Modified Eagle Medium (DMEM), and counted. When used, c29 or scrambled peptide were added to cultures for the third hour of the serum starvation procedure. 1×10^7 cells/ml suspended in 500 μl of serum-free DMEM were incubated with 26 nM NGF-FITC on ice for 60 minutes before analysis. For binding competition assays, following 1 hour in NGF-FITC, cells were washed with ice-cold PBS containing 0.1% normal bovine serum and incubated on ice with unlabeled NGF at concentrations ranging from 100 pM to 10 μM for 30 minutes, then washed twice in PBS before being analysed on a BD Flow Cytometer FACS Scan (Becton-Dickinson).
First, to determine the concentration of c29 required to modulate NGF binding, c29 levels were titrated with a fixed concentration of NGF-FITC.

[6] = tested on: p75^FL; test: Production of endogenous p75^CTF or p75^ICD fragments in p75^FL-transfected HEK293 cells; format: cell-based; details: vs untreated cells, data not shown
[7] = tested on: HEK293 cells; test: NGF-FITC binding by flow cytometry, non-transfected HEK293 cells
Experimental: as §3
as §4, with “1×10^7 cells/ml suspended in 500 μl of serum-free DMEM were incubated with 26 nM NGF-FITC on ice for 60 minutes before analysis.” left out

[8] = tested on: primary E13 motor neurons; test: Primary motor neuron survival and growth factor withdrawal; format: cell-based, mouse; details: 1 ng/ml BDNF plus NGF
Experimental: Briefly, pregnant mothers were sacrificed by cervical dislocation and the uterus removed by Caesarean section and placed in Neurobasal medium. Lumbar spinal cords were dissected from E13 embryos on ice. Batches of 2 or 3 spinal cords were incubated in 1 mL 0.05% trypsin-ETDA for 10 minutes at 37° C. in 15 mL tubes. To prevent further trypsinisation, 0.14 mg/mL trypsin inhibitor solution was added and the tissue centrifuged at 100×g for 7 minutes, without acceleration or deceleration. The supernatant was removed and the spinal cord tissue was resuspended in 1 mL of Neurobasal Medium (NB). In order to obtain a single cell suspension, each batch of 2-3 spinal cords was agitated manually for 2 minutes. The suspension was allowed to settle and the supernatant collected after being filtered through a 100 μm sieve. The remaining tissue was further triturated ˜8 times through a P200 pipette and filtered through a 100 μm sieve. The combined supernatants were then separated by centrifugation on a 5 ml cushion of 9% (vol/vol) OptiPrep® gradient in NB containing 2% B27 supplement for 45 min at 850×g, without acceleration or deceleration. To prevent toxicity following Optiprep® separation, the layer containing MNs was harvested into 10 mL of NB containing 10% HS, and the cell suspension was centrifuged at 900×g for 7 minutes at 24° C., without acceleration or deceleration. The supernatant was removed and the cell pellet was resuspended in 1 mL of NB medium.
The number of viable motor neurons was counted on a haemocytometer using 0.08% trypan blue and neurons plated in 4-well culture dishes at a density of 3,000 cells per well in 100 μL NB containing 10% HS. […] Primary motor neurons were maintained at 37° C. in a humidified atmosphere with 5% CO2 and culture medium was replaced at day 1 and 3. Phase contrast images of motor neurons were taken using an Olympus (6IX81) microscope after motor neurons were grown in vitro for up to 7 days.
To assess the effects of c29 peptide on motor neuronal survival in limiting growth factor concentrations, isolated spinal motor neurons were plated and treated with 0.01, 0.1 or 1.0 ng/ml of BDNF in the presence of 1 μm PTD4-linked c29 or scrambled peptide, and cultured for 5 days with the addition of fresh BDNF and peptide treatments on day 2 and 4. For growth factor-withdrawal assays, following initial plating in 1 ng/ml of BDNF, CNTF or GDNF, cultures were washed four times with serum-free Neurobasal (NB) medium, after which the medium was replaced with medium containing 1-0.01 ng/ml of BDNF, CNTF or GDNF and 1 μM PTD4-linked c29 or scrambled peptides, as indicated. For assays investigating the effect of c29 on NGF-mediated motor neuron death, cultures were grown in 1 ng/ml BDNF, CNTF or GDNF for 1 day, before being treated with 100 ng/ml 2.5S NGF in and 1 μM PTD4-linked c29 or scrambled peptide, as indicated. Motor neurons were counted on day 1, and to assess the effects of various treatments days 3 and 5 (4 separate 10×10 grid fields of each well per experiment).

[9] = tested on: TrkA and p75^NTR; test: Surface biotinylation of receptors in PC12 cells; format: cell-based; details: 1 μM peptide, with or without NGF
Experimental: FIG. 10: The juxtamembrane domain of p75^NTR increases the association of NGF to cells expressing TrkA. (A and B) Dose response graphs of the proportion (%) of PC12 cells with fluorescence intensity above background following treatment with 26 […] NGFFITC, a FITC-conjugated antibody to the extracellular domain of p75^NTR (A), or an antibody to TrkA (detected using an anti-rabbit Alexa 594 secondary) (B), after pretreatment with increasing concentrations of […] peptide. (n=3 experiments per data point; mean±SEM *p<0.05, **p<0.01) (C) Representative western blots (WB) of TrkA and p75^NTR present in streptavidin precipitates (surface biotin), or lysate flow through of PC12 cells that had been treated for 1 hour with NGF and/or c29 and scrambled (SC) peptide, prior to the surface proteins being labelled with biotin for 90 minutes on ice.

[10] = tested on: pErk1/2 and pAkt; test: Western blot of pErk1/2 and pAkt in PC12 cell lysates; format: cell-based; details: absence of NGF, 24 hours
Experimental: In biochemical experiments, PC12 and HEK293 cells were lysed for 20 minutes on ice in lysis buffer as described by (Ceni et al., 2010). Briefly, the lysis buffer contained 10 mM Tris-HCl, 150 mM NaCl, 2 mM EDTA, 1% (v/v) NP-40, 1% (v/v) TX-100, 10% Glycerol, 1 mM PMSF, 1 mM Sodium Orthovanadate, 1 μM BB94, 1% (v/v) Roche protease inhibitor cocktail and pH 8.0 (Ceni et al., 2010).
as §2
The observed functional effects on neurite outgrowth and survival were next correlated with enhanced activation of signal transduction pathways that mediate the trophic effects of TrkA. Lysates of cells treated for 24 hours with NGF alone or in combination with c29 or scrambled peptide were immunoblotted for pErk1/2 (neurite outgrowth), and the serine/threonine protein kinase Akt (survival). […] Total levels of Erk1/2 or Akt were unaffected by any treatment (FIG. 6 A, B).

Compound: CC(C)C[C@H](CC(=O)NO)C(=O)N[C@H](C(=O)N[C@@H](C)C(=O)NCCN)C(C)(C)C [TAPI-2, N—(R)-(2-(Hydroxyaminocarbonyl)Methyl)-4-Methylpentanoyl-L-t-Butyl-Glycine-L-Alanine 2-Aminoethyl Amide]
- PC12 cell differentiation induced by EGF [1]: neither the α- nor the γ-secretase inhibitor had any significant effect
- neurite length [2]: 20 μm

Compound: KRWASA [c1-6C6A]
- neurite growth [3]: stimulated neurite growth

Compound: ARWNSC [c1-6K1A]
- neurite growth [3]: stimulated neurite growth

Compound: (22-29): truncated peptide fragment of c29, residues 22-29 (PPPEGEKL)
- neurite growth [3]: stimulated neurite growth
- TrkA binding of biotinylated fragments [4]: clearly bind TrkA

Compound: SKGQVCRNQPGQNKPEPANKSWKETPLRN [SC, randomly scrambled version of c29, reference compound]
- median neurite outgrowth ([3]; 100 ng/ml NGF, day 5, peptide 1 μM, vs untreated cultures): no difference
- % of cell population with FITC above background [5]: 100.3 ± 5.1%
- Maximal fluorescence per cell of the population [5]: 100.4 ± 9.6%
- Mean fluorescence per FITC-positive cell [5]: 95.3 ± 7.4%
- Median population fluorescence [5]: 97.0 ± 3.8%
- rate of production of endogenous p75^CTF or p75^ICD fragments [6]: did not differ significantly
- fluorescence of nontransfected cells incubated with peptide and NGF-FITC [7]: only background levels of fluorescence
- NGF-induced cell death of motor neurons [8]: no effect
- surface or total receptor levels of TrkA and p75^NTR [9]: no significant difference
- pAkt signalling [10]: no effect
- pErk1/2 signalling [10]: no effect

Compound: KRWASC [c1-6N4A]
- neurite growth [3]: stimulated neurite growth

Compound: C[C@H](NC(=O)Cc1cc(F)cc(F)c1)C(=O)N[C@H]1N=C(c2ccccc2)c2ccccc2N(C)C1=O [compound E, (S,S)-2-[2-(3,5-Difluorophenyl)-acetylamino]-N-(1-methy-2-oxo-5-phenyl-2,3-dihydro-1H-benzo[e][1,4]diazepin-3-yl)-propionamide]
- PC12 cell differentiation induced by EGF [1]: neither the α- nor the γ-secretase inhibitor had any significant effect
- neurite length [2]: 20 μm

Compound: KRWNSC (c1-6 - Fragment of p75ICD) [(1-6)]
- neurite growth [3]: stimulated neurite growth
- TrkA binding of biotinylated fragments [4]: clearly bind TrkA

Compound: KRWNSCKQNKQGAN (c1-14 - Fragment of p75ICD) [(1-14)]
- neurite growth [3]: stimulated neurite growth
- TrkA binding of biotinylated fragments [4]: clearly bind TrkA

Compound: SRPVNQTPPPEGEKL (c15-29 - Fragment of p75ICD) [(15-29)]
- neurite growth [3]: stimulated neurite growth
- TrkA binding of biotinylated fragments [4]: clearly bind TrkA
